Assays:
Assay in all cases: Test A pre-/postemergence greenhouse test
barnyardgrass = format: in vivo, Echinochloa crus-galli; details: for Plant response rating, Barnyardgrass: 0 to 100 scale where 0 is no effect and 100 is complete control; for Barnyardgrass plant response rating: 0 to 100 scale
Source text: (§1) Seeds of barnyardgrass (Echinochloa crus-galli), crabgrass (Digitaria sanguinalis), giant foxtail (Setaria faberi), morningglory (Ipomoea spp.), redroot pigweed (Amaranthus retroflexus), velvetleaf (Abutilon theophrasti), wheat (Triticum aestivum), and corn (Zea mays) were planted into a blend of loam soil and sand and treated preemergence with a directed soil spray using test compounds formulated in a non-phytotoxic solvent mixture which included a surfactant. At the same time these species were also treated with postemergence applications of test compounds formulated in the same manner. Plants ranged in height from two to ten cm and were in the one- to two-leaf stage for the postemergence treatment. Treated plants and untreated controls were maintained in a greenhouse for approximately ten days, after which time all treated plants were compared to untreated controls and visually evaluated for injury. […] A dash (-) response means no test results.

crabgrass = format: in vivo, Digitaria sanguinalis; details: for Plant response rating, Crabgrass, Large: 0 to 100 scale where 0 is no effect and 100 is complete control; for Crabgrass, Large plant response rating: 0 to 100 scale
Source text: as §1

giant foxtail = format: in vivo, Setaria faberi; details: for Plant response rating, Foxtail, Giant: 0 to 100 scale where 0 is no effect and 100 is complete control; for Foxtail, Giant plant response rating: 0 to 100 scale
Source text: as §1

morningglory = format: in vivo, Ipomoea spp.; details: for Plant response rating, Morningglory: 0 to 100 scale where 0 is no effect and 100 is complete control; for Morningglory plant response rating: 0 to 100 scale
Source text: as §1

redroot pigweed = format: in vivo, Amaranthus retroflexus; details: for Plant response rating, Pigweed: 0 to 100 scale where 0 is no effect and 100 is complete control; for Pigweed plant response rating: 0 to 100 scale
Source text: as §1

velvetleaf = format: in vivo, Abutilon theophrasti; details: for Plant response rating, Velvetleaf: 0 to 100 scale where 0 is no effect and 100 is complete control; for Velvetleaf plant response rating: 0 to 100 scale
Source text: as §1

wheat = format: in vivo, Triticum aestivum; details: for Plant response rating, Wheat: 0 to 100 scale where 0 is no effect and 100 is complete control; for Wheat plant response rating: 0 to 100 scale
Source text: as §1

corn = format: in vivo, Zea mays; details: for Plant response rating, Corn: 0 to 100 scale where 0 is no effect and 100 is complete control; for Corn plant response rating: 0 to 100 scale
Source text: as §1

[1] = Postemergence, 500 g ai/ha, 0 is no effect, 100 is complete control
[2] = Preemergence, 125 g ai/ha, 0 no effect, 100 complete control
[3] = Preemergence, 500 g ai/ha, 0 no effect, 100 complete control

Structure (SMILES)	Plant response rating, Barnyardgrass (barnyardgrass; Postemergence, 125 g ai/ha)	Barnyardgrass plant response rating (barnyardgrass; [1])	Barnyardgrass plant response rating (barnyardgrass; [2])	Barnyardgrass plant response rating (barnyardgrass; [3])	Plant response rating, Crabgrass, Large (crabgrass; Postemergence, 125 g ai/ha)	Crabgrass, Large plant response rating (crabgrass; [1])	Crabgrass, Large plant response rating (crabgrass; [2])	Crabgrass, Large plant response rating (crabgrass; [3])	Plant response rating, Foxtail, Giant (giant foxtail; Postemergence, 125 g ai/ha)	Foxtail, Giant plant response rating (giant foxtail; [1])	Foxtail, Giant plant response rating (giant foxtail; [2])	Foxtail, Giant plant response rating (giant foxtail; [3])	Plant response rating, Morningglory (morningglory; Postemergence, 125 g ai/ha)	Morningglory plant response rating (morningglory; [1])	Morningglory plant response rating (morningglory; [2])	Morningglory plant response rating (morningglory; [3])	Plant response rating, Pigweed (redroot pigweed; Postemergence, 125 g ai/ha)	Pigweed plant response rating (redroot pigweed; [1])	Pigweed plant response rating (redroot pigweed; [2])	Pigweed plant response rating (redroot pigweed; [3])	also measured
Cn1nc(C(F)(F)F)c(CS(=O)(=O)c2cc(C3CC3)cc[n+]2[O-])c1OC(F)F [Compound 118]	50	70	70	100	40	80	90	100	40	80	90	100	20	60	40	100	50	80	100	100	Plant response rating, Velvetleaf (velvetleaf; Postemergence, 125 g ai/ha): 40; Velvetleaf plant response rating (velvetleaf; [1]): 60; Velvetleaf plant response rating (velvetleaf; [2]): 20; Velvetleaf plant response rating (velvetleaf; [3]): 90; Plant response rating, Wheat (wheat; Postemergence, 125 g ai/ha): 40; Wheat plant response rating (wheat; [1]): 60; Wheat plant response rating (wheat; [2]): 40; Wheat plant response rating (wheat; [3]): 60; Plant response rating, Corn (corn; Postemergence, 125 g ai/ha): 0; Corn plant response rating (corn; [1]): 0; Corn plant response rating (corn; [2]): 0; Corn plant response rating (corn; [3]): 20
Cn1nc(C(F)(F)F)c(CS(=O)(=O)c2cc(C3CC3)cc[n+]2[O-])c1OCC(F)(F)F [Compound 119]	40	60	50	90	40	60	80	90	30	70	90	100	10	20	30	80	30	60	100	100	Plant response rating, Velvetleaf (velvetleaf; Postemergence, 125 g ai/ha): 10; Velvetleaf plant response rating (velvetleaf; [1]): 50; Velvetleaf plant response rating (velvetleaf; [2]): 20; Velvetleaf plant response rating (velvetleaf; [3]): 70; Plant response rating, Wheat (wheat; Postemergence, 125 g ai/ha): 30; Wheat plant response rating (wheat; [1]): 50; Wheat plant response rating (wheat; [2]): 0; Wheat plant response rating (wheat; [3]): 30; Plant response rating, Corn (corn; Postemergence, 125 g ai/ha): 0; Corn plant response rating (corn; [1]): 0; Corn plant response rating (corn; [2]): 0; Corn plant response rating (corn; [3]): 0
CCCc1cc[n+]([O-])c(S(=O)(=O)Cc2c(C(F)(F)F)nn(C)c2OCC(F)(F)F)c1 [Compound 115]	60	70	90	90	20	70	80	100	40	80	90	100	0	0	30	80	20	80	100	100	Plant response rating, Velvetleaf (velvetleaf; Postemergence, 125 g ai/ha): 0; Velvetleaf plant response rating (velvetleaf; [1]): 20; Velvetleaf plant response rating (velvetleaf; [2]): 20; Velvetleaf plant response rating (velvetleaf; [3]): 60; Plant response rating, Wheat (wheat; Postemergence, 125 g ai/ha): 30; Wheat plant response rating (wheat; [1]): 50; Wheat plant response rating (wheat; [2]): 20; Wheat plant response rating (wheat; [3]): 50; Plant response rating, Corn (corn; Postemergence, 125 g ai/ha): 0; Corn plant response rating (corn; [1]): 20; Corn plant response rating (corn; [2]): 30; Corn plant response rating (corn; [3]): 50
Cn1nc(C(F)(F)F)c(C[S+]([O-])c2cc(C3CC3)cc[n+]2[O-])c1OC(F)F (centres unmarked) [Compound 120]	60	70	80	100	50	80	90	90	80	90	100	100	50	80	80	90	60	80	100	100	Plant response rating, Velvetleaf (velvetleaf; Postemergence, 125 g ai/ha): 60; Velvetleaf plant response rating (velvetleaf; [1]): 80; Velvetleaf plant response rating (velvetleaf; [2]): 60; Velvetleaf plant response rating (velvetleaf; [3]): 80; Plant response rating, Wheat (wheat; Postemergence, 125 g ai/ha): 40; Wheat plant response rating (wheat; [1]): 50; Wheat plant response rating (wheat; [2]): 50; Wheat plant response rating (wheat; [3]): 100; Plant response rating, Corn (corn; Postemergence, 125 g ai/ha): 30; Corn plant response rating (corn; [1]): 70; Corn plant response rating (corn; [2]): 80; Corn plant response rating (corn; [3]): 90

Reference: patent US20100298141A1, “SUBSTITUTED PYRIDINE N-OXIDE HERBICIDES” (E. I. DU PONT DE NEMOURS AND COMPANY, priority 2007, published 2010)
